Source: patent US20160175221A1, “COMPOSITION FOR PREVENTING SKIN AGING CONTAINING ALOESIN OR DERIVATIVE THEREOF” (UNIVERA INC., priority 2013, published 2016)

Assays:
MMP-1 = MMP-1 level in medium by ELISA (Human Total MMP-1 Kit); type: cell-based; settings: NHDFs after UVB irradiation (144 mJ/cm^2), 72 hours, FIG. 2
Procedure: (§1) The concentrations of MMP-1 and PIP in the medium were determined using commercially available enzyme-linked immunosorbent assay (ELISA) kits (Human Total MMP-1 Kit, R&D Systems, Inc., Minneapolis, Minn., USA and procollagen type I C-peptide enzyme immunoassay (EIA) kit, Takara Inc., Shiga, Japan) according to the manufacturer's instructions. Each sample was analyzed in triplicate.

[1] = tested on: type I procollagen peptide (PIP); test: PIP level in medium by procollagen type I C-peptide EIA kit; type: cell-based, human; settings: 0.01 μg/ml and 0.1 μg/ml
Procedure: as §1

procollagen type I mRNA = test: RT-PCR of procollagen type I mRNA in UVB irradiated fibroblasts; type: cell-based, human; settings: NHDFs after UVB irradiation, 0.01 μg/ml, 0.1 μg/ml and 1 μg/ml, 24 hours; ratio to GAPDH; FIG. 4
Procedure: (§2) After UVB irradiation, separation of RNA from aloesin treated normal human dermal fibroblasts (NHDFs) was performed using TRIZOL reagent (Invitrogen Life Technologies, Carlsbad, […]) according to the manufacturer's instructions. RNA (5 μg) was subjected to reverse transcription using 200 units of reverse transcriptase and 0.5 μg/μl of oligo-(dT) 15 primer (Bioneer Inc., Korea). The reaction was performed at 42° C. for 60 minutes, and then terminated by heating at 94° C. for five minutes. PCR amplification of cDNA template was performed using PCR premix (Bioneer Inc.) and the following primer pairs: MMP-1, forward 5′-ATTCTACTGATATCGGGGCTTTGA-3′, reverse 5′-ATGTCCTTGGGGTATCCGTGTAG-3′; procollagen type I, forward 5′-CTCGAGGTGGACACCACCCT-3′, reverse 5′-CAGCTGGATGGCCACATCGG-3′; and glyceraldehydes-3-phosphate […] (GAPDH), sense 5′-ACCACAGTCCATGCCATCAC-3′, antisense 5′-CCACCACCCTGTTGCTGTAC-3′. […]
(§3) To investigate mRNA levels of aloesin treated cells (24 hours after treatment), the concentration of MMP-1 and procollagen type I was measured in UVB irradiated normal human dermal fibroblasts. To quantify the data, the ratio of MMP-1/GAPDH and procollagen type I/GAPDH in normal human dermal fibroblasts was randomly set to 1.0, based on band signal intensity.

[2] = tested on: normal human dermal fibroblasts (NHDFs); test: MTT colorimetric assay, cytotoxicity of treated cells; settings: before and after UVB irradiation, 0.01 and 0.1 μg/ml before, 0.1 and 1 μg/ml after, 72 hours after treatment, FIG. 1
MMP-1 mRNA = test: RT-PCR of MMP-1 mRNA in UVB irradiated fibroblasts; type: cell-based, human; settings: NHDFs after UVB irradiation, 0.01 μg/ml, 0.1 μg/ml and 1 μg/ml, 24 hours; ratio to GAPDH; FIG. 4
Procedure: as §2, §3

[3] = NHDFs after UVB irradiation, 72 hours, FIG. 3b
[4] = NHDFs prior to UVB irradiation, FIG. 3a

| SMILES | MMP-1 levels (MMP-1; 1 μg/ml) | PIP levels [1, 3] | PIP levels [1, 4] | mRNA expression of procollagen type I (procollagen type I mRNA) | cytotoxicity [2] | mRNA expression of MMP-1 (MMP-1 mRNA) | MMP-1 levels (MMP-1; 0.1 μg/ml) |
| --- | --- | --- | --- | --- | --- | --- | --- |
| COc1cc(C)c2c(=O)cc(C[C@H](C)O)oc2c1[C@@H]1O[C@H](CO)[C@@H](O)[C@H](O)[C@H]1OC(=O)/C=C/c1ccc(O)cc1 [isoaloeresin D] | significantly decreased MMP-1 levels | significantly increased PIP levels | significantly increased PIP levels | – | – | – | – |
| CC(=O)Cc1cc(=O)c2c(C)cc(O)c([C@@H]3O[C@H](CO)[C@@H](O)[C@H](O)[C@H]3O)c2o1 [aloesin] | – | significantly increased PIP levels | significantly increased PIP levels | significantly increased mRNA expression of procollagen type I | decreased cytotoxicity | decreased mRNA expression of MMP-1 | significantly decreased MMP-1 levels |
| CC(=O)Cc1cc(=O)c2c(C)cc(O)c([C@@H]3O[C@H](CO)[C@@H](O)[C@H](O)[C@H]3OC(=O)/C=C/c3ccc(O)cc3)c2o1 [aloeresin A] | – | significantly increased PIP levels | significantly increased PIP levels | – | – | – | – |
